26 compounds from patent publication US10882837B2, “Amide compounds and use thereof” (ALPHALA CO., LTD., priority 2017, dated 2021) can be followed below.

The structures appear in SMILES notation. Bounds are passed on as bounds.

For one test, the target named is GCGR (Homo sapiens, UniProt P47871). Description: I125-glucagon binding assay (competition, GCGR membrane fractions). Also on record: expressed in transfected cells; host or cells: CHO-K1; inhibition: dose or concentration left out as unconfirmed. The conditions noted are these: for IC50: competition with I125-glucagon 0.0625 nM, membrane fractions from GCGR overexpressed CHO-K1 cells; for inhibition: read-out: percentage of inhibition (number in parenthesis in IC50 binding column). The method in brief: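 Membranes from CHO-K1 cells overexpressing GCGR (7.5 µg/well) were preincubated 5 min with serially diluted compound in 50 mM Tris pH 7.4, 0.5% BSA. I125-glucagon was then added at 0.0625 nM final and incubated 30 min at 25 °C. After filtration, bound radioactivity was counted and IC50 derived by non-linear regression.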
Chain of GCGR (P47871 26-477, species assumed): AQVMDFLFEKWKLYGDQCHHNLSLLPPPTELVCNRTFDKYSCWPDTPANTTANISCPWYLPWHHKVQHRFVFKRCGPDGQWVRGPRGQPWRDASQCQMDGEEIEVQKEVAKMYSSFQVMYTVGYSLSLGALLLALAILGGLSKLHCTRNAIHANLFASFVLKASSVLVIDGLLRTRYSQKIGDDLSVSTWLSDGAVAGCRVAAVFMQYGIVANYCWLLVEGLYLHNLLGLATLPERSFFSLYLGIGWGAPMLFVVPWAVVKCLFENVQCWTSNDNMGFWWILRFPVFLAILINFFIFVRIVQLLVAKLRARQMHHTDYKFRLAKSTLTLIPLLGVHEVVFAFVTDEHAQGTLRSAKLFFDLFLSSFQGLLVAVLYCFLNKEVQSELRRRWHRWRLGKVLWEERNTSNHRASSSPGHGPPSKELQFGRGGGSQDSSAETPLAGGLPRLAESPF

The next test deals with T1, glucagon receptor (GCGR) (Homo sapiens, UniProt P47871).
T1 construct: expressed in transfected cells; host or cells: CHO-K1
T1 sequence (P47871 26-477, species assumed): as above
Nature of the test: Glucagon cAMP inhibition assay (Cisbio cAMP Dynamic 2 HTRF). The test is classed as cell-based. The note with it: GCGR overexpressed CHO-K1 cells or human primary hepatocytes (not specified); glucagon at EC50. The gist of the method: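 GCGR-overexpressing CHO-K1 cells or human primary hepatocytes in HBSS with 0.1% BSA and 800 nM IBMX, pre-incubated 30 min with compound (1% DMSO final), then stimulated 30 min at room temperature with glucagon at its EC50. cAMP measured by HTRF after 60 min lysis; IC50 from non-linear regression.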
On the technique in general: TR-FRET usually uses a lanthanide donor and a delayed reading to cut background.

As a reminder, the IC50 is the concentration at which inhibition is half-maximal. On to `CCOC(=O)CCNC(=O)c1ccc(N[C@H](c2ccc(-c3noc(-c4ccccc4)n3)cc2)C(C)CC)cc1` (stereo partly drawn) [Compound 2-18, ethyl 3-(4-(((1S)-2-methyl-(4-(5-phenyl-1,2,4-oxadiazol-3-yl)phenyl)butyl)amino)benzamido)propanoate], for which the half-maximal inhibitory concentration (IC50) at GCGR amounted to 830 nM; on glucagon receptor (GCGR), 46.7 nM.
Taken in the same sequence, the figures for `CCOC(=O)CCNC(=O)c1ccc(N[C@@H](c2ccc(-c3noc(-c4ccccc4)n3)cc2)C(C)CC)cc1` (stereo partly drawn) [Compound 2-20, ethyl 3-(4-(((1R)-2-methyl-1-(4-(5-phenyl-1,2,4-oxadiazol-3-yl)phenyl)butyl)amino)benzamido)propanoate] were 217 nM and 338 nM.
Taken in the same sequence, the figures for `CCC(C)[C@@H](Nc1ccc(C(=O)NCCC(=O)O)cc1)c1ccc(-c2noc(-c3ccccc3)n2)cc1` (stereo partly drawn) [Compound 2-21, 3-(4-(((1R)-2-methyl-1-(4-(5-phenyl-1,2,4-oxadiazol-3-yl)phenyl)butyl)amino)benzamido)propanoic acid] were 85 nM and 569 nM.
Taken in the same sequence, the figures for `CCOC(=O)CCNC(=O)c1ccc(N[C@@H](c2ccc(-c3noc(-c4ccccc4)n3)cc2)C(C)C)cc1` [Compound 2-22, ethyl (R)-3-(4-((2-methyl-1-(4-(5-phenyl-1,2,4-oxadiazol-3-yl)phenyl)propyl)amino)benzamido)propanoate] were 673 nM and 245 nM.
For `CC(C)[C@@H](Nc1ccc(C(=O)NCCC(=O)O)cc1)c1ccc(-c2noc(-c3ccccc3)n2)cc1` [Compound 2-23, (R)-3-(4-((2-methyl-1-(4-(5-phenyl-1,2,4-oxadiazol-3-yl)phenyl)propyl)amino)benzamido)propanoic acid], the figures for the half-inhibitory concentration (IC50) on GCGR and at glucagon receptor (GCGR) were 537 nM and 1000 nM, respectively.
Usually inhibition stands for the share of the control response that was lost under treatment. As to `CCOC(=O)CCNC(=O)c1ccc(NC(c2ccc(-c3noc(-c4ccc(F)cc4)n3)cc2)C(C)C)cc1` (stereo not drawn) [Compound 2-24, ethyl 3-(4-((1-(4-(5-(4-fluorophenyl)-1,2,4-oxadiazol-3-yl)phenyl)-2-methylpropyl)amino)benzamido)propanoate], at GCGR, the half-inhibitory concentration (IC50) amounted to 2680 nM and the inhibition stood at 35%. The compound further registered an IC50 against glucagon receptor (GCGR) of 248 nM.
As to `CC(C)C(Nc1ccc(C(=O)NCCC(=O)O)cc1)c1ccc(-c2noc(-c3ccc(F)cc3)n2)cc1` (stereo not drawn) [Compound 2-25, 3-(4-((1-(4-(5-(4-fluorophenyl)-1,2,4-oxadiazol-3-yl)phenyl)-2-methylpropyl)amino)benzamido)propanoic acid], the IC50 at GCGR is 58 nM; on glucagon receptor (GCGR), 1190 nM.
For the compound `CC(C)C(Nc1ccc(C(=O)NCCC(=O)O)cc1)c1ccc(-c2noc(-c3ccccc3)n2)cc1` (stereo not drawn) [Compound 2-26, 3-(4-((2-methyl-1-(4-(5-phenyl-1,2,4-oxadiazol-3-yl)phenyl)propyl)amino)benzamido)propanoic acid], the IC50 at GCGR stood at 40 nM; against glucagon receptor (GCGR), 570 nM.
Taken in the same sequence, the figures for `CCOC(=O)CCNC(=O)c1ccc(N[C@H](c2ccc(-c3noc(-c4ccccc4)n3)cc2)C(C)C)cc1` [Compound 2-27, ethyl (S)-3-(4-((2-methyl-1-(4-(5-phenyl-1,2,4-oxadiazol-3-yl)phenyl)propyl)amino)benzamido)propanoate] were 634 nM and 61 nM.
Taken in the same sequence, the figures for `CC(C)[C@H](Nc1ccc(C(=O)NCCC(=O)O)cc1)c1ccc(-c2noc(-c3ccccc3)n2)cc1` [Compound 2-28, (S)-3-(4-((2-methyl-1-(4-(5-phenyl-1,2,4-oxadiazol-3-yl)phenyl)propyl)amino)benzamido)propanoic acid] were 29 nM and 295 nM.
Take `CCOC(=O)CCNC(=O)c1ccc(N[C@H](c2ccc(-c3noc(C(F)(F)F)n3)cc2)C(C)CC)cc1` (stereo partly drawn) [Compound 2-29, ethyl 3-(4-(((1S)-2-methyl-1-(4-(5-(trifluoromethyl)-1,2,4-oxadiazol-3-yl)phenyl)butyl)amino)benzamido)propanoate]: at GCGR, the IC50 stood at 1820 nM and the inhibition came out at 18%. The compound further showed a concentration for half-maximal inhibition (IC50) against glucagon receptor (GCGR) of 172 nM.
Turning to `CCC(C)[C@H](Nc1ccc(C(=O)NCCC(=O)O)cc1)c1ccc(-c2noc(C(F)(F)F)n2)cc1` (stereo partly drawn) [Compound 2-30, 3-(4-(((1S)-2-methyl-1-(4-(5-(trifluoromethyl)-1,2,4-oxadiazol-3-yl)phenyl)butyl)amino)benzamido)propanoic acid], the half-inhibitory concentration (IC50) came to 166 nM at GCGR and 550 nM at glucagon receptor (GCGR).
In the case of `COC(=O)CCNC(=O)c1ccc(NC(c2ccc(-c3noc(-c4ccccc4)n3)cc2)C(C)C)cc1` (stereo not drawn) [Compound 2-31, methyl 3-(4-((2-methyl-1-(4-(5-phenyl-1,2,4-oxadiazol-3-yl)phenyl)propyl)amino)benzamido)propanoate], the concentration for half-maximal inhibition (IC50) at GCGR came out at 204 nM; on glucagon receptor (GCGR), 97 nM.
Taken in the same sequence, the figures for `CCCCC(Nc1ccc(C(=O)NCCC(=O)OC)cc1)c1ccc(-c2noc(-c3ccccc3)n2)cc1` (stereo not drawn) [Compound 2-32, methyl 3-(4-((1-(4-(5-phenyl-1,2,4-oxadiazol-3-yl)phenyl)pentyl)amino)benzamido)propanoate] were 616 nM and 147 nM.
For the compound `CCCC[C@H](Nc1ccc(C(=O)NCCC(=O)OCC)cc1)c1ccc(-c2noc(-c3ccccc3)n2)cc1` [Compound 2-33, ethyl (S)-3-(4-((1-(4-(5-phenyl-1,2,4-oxadiazol-3-yl)phenyl)pentyl)amino)benzamido)propanoate], the 50% inhibitory concentration (IC50) on GCGR was determined as 1040 nM; against glucagon receptor (GCGR), 283 nM.
Taken in the same sequence, the figures for `CCCC[C@@H](Nc1ccc(C(=O)NCCC(=O)OCC)cc1)c1ccc(-c2noc(-c3ccccc3)n2)cc1` [Compound 2-35, ethyl (R)-3-(4-((1-(4-(5-phenyl-1,2,4-oxadiazol-3-yl)phenyl)pentyl)amino)benzamido)propanoate] were 40 nM and 852 nM.
Taken in the same sequence, the figures for `CCCC[C@@H](Nc1ccc(C(=O)NCCC(=O)O)cc1)c1ccc(-c2noc(-c3ccccc3)n2)cc1` [Compound 2-36, (R)-3-(4-((1-(4-(5-phenyl-1,2,4-oxadiazol-3-yl)phenyl)pentyl)amino)benzamido)propanoic acid] were 199 nM and 338 nM.
Taken in the same sequence, the figures for `CCCC[C@H](Nc1ccc(C(=O)NCCC(=O)OCC)cc1)c1ccc(-c2noc(-c3ccccn3)n2)cc1` [Compound 2-37, ethyl (S)-3-(4-((1-(4-(5-(pyridin-2-yl)-1,2,4-oxadiazol-3-yl)phenyl)pentyl)amino)benzamido)propanoate] were 1100 nM and 89.7 nM.
Turning to `CCCC[C@H](Nc1ccc(C(=O)NCCC(=O)O)cc1)c1ccc(-c2noc(-c3ccccn3)n2)cc1` [Compound 2-38, (S)-3-(4-((1-(4-(5-(pyridin-2-yl)-1,2,4-oxadiazol-3-yl)phenyl)pentyl)amino)benzamido)propanoic acid], the half-inhibitory concentration (IC50) worked out at 226 nM on GCGR and 686 nM at glucagon receptor (GCGR).
Taken in the same sequence, the figures for `CCCC[C@@H](Nc1ccc(C(=O)NCCC(=O)OCC)cc1)c1ccc(-c2noc(-c3ccccn3)n2)cc1` [Compound 2-39, ethyl (R)-3-(4-((1-(4-(5-(pyridin-2-yl)-1,2,4-oxadiazol-3-yl)phenyl)pentyl)amino)benzamido)propanoate] were above 30000 nM and 672 nM.
Taken in the same sequence, the figures for `CCCC[C@@H](Nc1ccc(C(=O)NCCC(=O)O)cc1)c1ccc(-c2noc(-c3ccccn3)n2)cc1` [Compound 2-40, (R)-3-(4-((1-(4-(5-(pyridin-2-yl)-1,2,4-oxadiazol-3-yl)phenyl)pentyl)amino)benzamido)propanoic acid] were 1020 nM and 138 nM.
Take `CCOC(=O)CCNC(=O)c1ccc(N[C@@H](CC(C)C)c2ccc(-c3noc(-c4ccccc4)n3)cc2)cc1` [Compound 2-41, ethyl (S)-3-(4-((3-methyl-1-(4-(5-phenyl-1,2,4-oxadiazol-3-yl)phenyl)butyl)amino)benzamido)propanoate]: the IC50 was 389 nM on GCGR and 71.1 nM on glucagon receptor (GCGR).
Regarding `CCOC(=O)CCNC(=O)c1ccc(N[C@H](CC(C)C)c2ccc(-c3noc(-c4ccccc4)n3)cc2)cc1` [Compound 2-42, ethyl (R)-3-(4-((3-methyl-1-(4-(5-phenyl-1,2,4-oxadiazol-3-yl)phenyl)butyl)amino)benzamido)propanoate], the figures for the half-inhibitory concentration (IC50) at GCGR and on glucagon receptor (GCGR) were 42 nM and 248 nM, respectively.
Taken in the same sequence, the figures for `CC(C)C[C@H](Nc1ccc(C(=O)NCCC(=O)O)cc1)c1ccc(-c2noc(-c3ccccc3)n2)cc1` [Compound 2-43, (S)-3-(4-((3-methyl-1-(4-(5-phenyl-1,2,4-oxadiazol-3-yl)phenyl)butyl)amino)benzamido)propanoic acid] were above 30000 nM and 391 nM.
Taken in the same sequence, the figures for `CC(C)C[C@@H](Nc1ccc(C(=O)NCCC(=O)O)cc1)c1ccc(-c2noc(-c3ccccc3)n2)cc1` [Compound 2-44, (R)-3-(4-((3-methyl-1-(4-(5-phenyl-1,254-oxadiazol-3-yl)phenyl)butyl)amino)benzamido)propanoic acid] were 199 nM and 334 nM.
Taken in the same sequence, the figures for `CCCC[C@H](Nc1ccc(C(=O)NCCC(=O)OCC)cc1)c1ccc(-c2noc(C(F)(F)F)n2)cc1` [Compound 2-45, ethyl (S)-3-(4-((1-(4-(5-(trifluoromethyl)-1,2,4-oxadiazol-3-yl)phenyl)pentyl)amino)benzamido)propanoate] were above 30000 nM and 118 nM.
